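Five concentrations, 48 hours, 96-well plates. The concentration for full growth arrest is given as TGI.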
Columns and labels:
Test in all cases: DTP human tumour cell line panel, 48 h
OVCAR-3 ovarian = test system: OVCAR-3 ovarian
HCT-15 colon = test system: HCT-15 colon
SK-MEL-28 melanoma = test system: SK-MEL-28 melanoma
NCI-H23 lung = test system: NCI-H23 lung
M19-MEL melanoma = test system: M19-MEL melanoma
HCC-2998 colon = test system: HCC-2998 colon
SK-OV-3 ovarian = test system: SK-OV-3 ovarian
SF-295 CNS = test system: SF-295 CNS
OVCAR-4 ovarian = test system: OVCAR-4 ovarian
MOLT-4 leukemia = test system: MOLT-4 leukemia
IGROV1 ovarian = test system: IGROV1 ovarian
COLO 205 colon = test system: COLO 205 colon
MALME-3M melanoma = test system: MALME-3M melanoma
LXFL 529 NSCLC = test system: LXFL 529 NSCLC
UO-31 renal = test system: UO-31 renal
U251 CNS = test system: U251 CNS
KM20L2 colon = test system: KM20L2 colon
DLD-1 colon = test system: DLD-1 colon
SK-MEL-2 melanoma = test system: SK-MEL-2 melanoma
SR leukemia = test system: SR leukemia
SNB-78 CNS = test system: SNB-78 CNS
TK-10 renal = test system: TK-10 renal
CAKI-1 renal = test system: CAKI-1 renal
SW-620 colon = test system: SW-620 colon
M14 melanoma = test system: M14 melanoma
DMS 114 small cell lung = test system: DMS 114 small cell lung
UACC-62 melanoma = test system: UACC-62 melanoma
SN12C renal = test system: SN12C renal
HOP-92 NSCLC = test system: HOP-92 NSCLC
K-562 leukemia = test system: K-562 leukemia
XF 498 CNS = test system: XF 498 CNS
CCRF-CEM leukemia = test system: CCRF-CEM leukemia
OVCAR-8 ovarian = test system: OVCAR-8 ovarian
SNB-19 CNS = test system: SNB-19 CNS
RXF 393 renal = test system: RXF 393 renal
HT29 colon = test system: HT29 colon
OVCAR-5 ovarian = test system: OVCAR-5 ovarian
SK-MEL-5 melanoma = test system: SK-MEL-5 melanoma
NCI-H522 lung = test system: NCI-H522 lung
KM12 colon = test system: KM12 colon
A498 renal = test system: A498 renal
ACHN renal = test system: ACHN renal
HL-60(TB) leukemia = test system: HL-60(TB) leukemia
SF-539 CNS = test system: SF-539 CNS
HOP-62 NSCLC = test system: HOP-62 NSCLC
UACC-257 melanoma = test system: UACC-257 melanoma
A549 NSCLC = test system: A549 NSCLC
DMS 273 small cell lung = test system: DMS 273 small cell lung
LOX IMVI melanoma = test system: LOX IMVI melanoma
786-0 renal = test system: 786-0 renal
SF-268 CNS = test system: SF-268 CNS
NCI-H460 lung = test system: NCI-H460 lung
SNB-75 CNS = test system: SNB-75 CNS
EKVX NSCLC = test system: EKVX NSCLC
RPMI-8226 leukemia = test system: RPMI-8226 leukemia
HCT-116 colon = test system: HCT-116 colon
HOP-18 NSCLC = test system: HOP-18 NSCLC

Molecule `COc1cc(/C=C(\NC(=O)c2ccccc2)c2nc3ccc([N+](=O)[O-])cc3[nH]2)cc(OC)c1OC` has a TGI (OVCAR-3 ovarian) of over 100 µM, a TGI (HCT-15 colon) of over 100 µM and a TGI (SK-MEL-28 melanoma) of over 100 µM. It also gave a TGI (NCI-H23 lung) of over 100 µM, a TGI (M19-MEL melanoma) of over 100 µM and a TGI (HCC-2998 colon) of over 100 µM. For the same molecule, the TGI (SK-OV-3 ovarian) was over 100 µM, the TGI (SF-295 CNS) was over 100 µM and the TGI (OVCAR-4 ovarian) was over 100 µM. It also gave a TGI (MOLT-4 leukemia) of over 100 µM, a TGI (IGROV1 ovarian) of over 100 µM and a TGI (COLO 205 colon) of over 100 µM. The TGI (MALME-3M melanoma) was over 100 µM, the TGI (LXFL 529 NSCLC) was over 100 µM and the TGI (UO-31 renal) was 89.5 µM. It also gave a TGI (U251 CNS) of over 100 µM, a TGI (KM20L2 colon) of over 100 µM and a TGI (DLD-1 colon) of over 100 µM. The TGI (SK-MEL-2 melanoma) was over 100 µM, the TGI (SR leukemia) was over 100 µM and the TGI (SNB-78 CNS) was over 100 µM. It also gave a TGI (TK-10 renal) of over 100 µM, a TGI (CAKI-1 renal) of over 100 µM and a TGI (SW-620 colon) of over 100 µM. It also gave a TGI (M14 melanoma) of over 100 µM, a TGI (DMS 114 small cell lung) of over 100 µM and a TGI (UACC-62 melanoma) of over 100 µM. It also gave a TGI (SN12C renal) of over 100 µM, a TGI (HOP-92 NSCLC) of over 100 µM and a TGI (K-562 leukemia) of over 100 µM. It also gave a TGI (XF 498 CNS) of over 100 µM, a TGI (CCRF-CEM leukemia) of over 100 µM and a TGI (OVCAR-8 ovarian) of over 100 µM. The TGI (SNB-19 CNS) was over 100 µM, the TGI (RXF 393 renal) was over 100 µM and the TGI (HT29 colon) was over 100 µM. For the same molecule, the TGI (OVCAR-5 ovarian) was over 100 µM, the TGI (SK-MEL-5 melanoma) was over 100 µM and the TGI (NCI-H522 lung) was over 100 µM. For the same molecule, the TGI (KM12 colon) was over 100 µM.
`CN(C)c1nc(N(C)C)nc(N(C)CN(C)c2nc(N(C)C)nc(N(C)C)n2)n1` showed a TGI (OVCAR-3 ovarian) of over 100 µM, a TGI (A498 renal) of over 100 µM and a TGI (HCT-15 colon) of over 100 µM. The TGI (SK-MEL-28 melanoma) was over 100 µM, the TGI (ACHN renal) was over 100 µM and the TGI (HL-60(TB) leukemia) was over 100 µM. The TGI (NCI-H23 lung) was over 100 µM, the TGI (M19-MEL melanoma) was over 100 µM and the TGI (HCC-2998 colon) was over 100 µM. For the same molecule, the TGI (SK-OV-3 ovarian) was over 100 µM, the TGI (SF-295 CNS) was over 100 µM and the TGI (SF-539 CNS) was over 100 µM. It also gave a TGI (OVCAR-4 ovarian) of over 100 µM, a TGI (HOP-62 NSCLC) of over 100 µM and a TGI (MOLT-4 leukemia) of over 100 µM. The TGI (IGROV1 ovarian) was over 100 µM, the TGI (UACC-257 melanoma) was over 100 µM and the TGI (A549 NSCLC) was over 100 µM. The TGI (DMS 273 small cell lung) was over 100 µM, the TGI (COLO 205 colon) was over 100 µM and the TGI (MALME-3M melanoma) was over 100 µM. The TGI (LXFL 529 NSCLC) was over 100 µM, the TGI (UO-31 renal) was over 100 µM and the TGI (LOX IMVI melanoma) was over 100 µM. It also gave a TGI (U251 CNS) of over 100 µM, a TGI (KM20L2 colon) of over 100 µM and a TGI (DLD-1 colon) of over 100 µM. It also gave a TGI (SK-MEL-2 melanoma) of over 100 µM, a TGI (SR leukemia) of over 100 µM and a TGI (SNB-78 CNS) of over 100 µM. For the same molecule, the TGI (TK-10 renal) was over 100 µM, the TGI (786-0 renal) was 32.9 µM and the TGI (CAKI-1 renal) was over 100 µM. For the same molecule, the TGI (SF-268 CNS) was over 100 µM, the TGI (SW-620 colon) was over 100 µM and the TGI (M14 melanoma) was over 100 µM. The TGI (DMS 114 small cell lung) was over 100 µM, the TGI (NCI-H460 lung) was over 100 µM and the TGI (SNB-75 CNS) was over 100 µM. It also gave a TGI (EKVX NSCLC) of over 100 µM, a TGI (UACC-62 melanoma) of over 100 µM and a TGI (SN12C renal) of over 100 µM. For the same molecule, the TGI (HOP-92 NSCLC) was over 100 µM, the TGI (K-562 leukemia) was over 100 µM and the TGI (CCRF-CEM leukemia) was over 100 µM. The TGI (RPMI-8226 leukemia) was over 100 µM, the TGI (OVCAR-8 ovarian) was over 100 µM and the TGI (SNB-19 CNS) was over 100 µM. It also gave a TGI (RXF 393 renal) of over 100 µM, a TGI (HT29 colon) of over 100 µM and a TGI (OVCAR-5 ovarian) of over 100 µM. The TGI (HCT-116 colon) was over 100 µM, the TGI (SK-MEL-5 melanoma) was over 100 µM and the TGI (HOP-18 NSCLC) was over 100 µM. For the same molecule, the TGI (NCI-H522 lung) was over 100 µM and the TGI (KM12 colon) was over 100 µM.

From PubChem BioAssay (NCI)
